The source of these data is patent US7674810B2, “1,1-dioxo-1H-1Λ6-benzo[d]isothiazol-3-yl)-4-hydroxy-1,5-dihydro-pyrrol-2-one inhibitors of HCV polymerase” (Roche Palo Alto LLC, priority 2006, dated 2010).

Molecules are shown by their SMILES. Bounds are passed on as bounds.

One data set has as its system HCV. Conditions: cited from earlier work.
In data set [1] the test system is Renilla luciferase HCV replicon cells (2209-23). The data set is described as follows: Renilla luciferase Assay (HCV replicon). In kind it is cell-based, HCV; human hepatoma Huh7 cells. Conditions: 72 h; replicon cell line 2209-23, three days incubation; read-out: R. luciferase Activity IC50.
Another data set deals with T1, HCV NS5B570n-BK (Hepatitis C virus genotype 1b, UniProt P26663).
T1 construct: histidine tag (N); made in house; host or cells: E. coli strain M15
T1 sequence (P26663 2421-2999): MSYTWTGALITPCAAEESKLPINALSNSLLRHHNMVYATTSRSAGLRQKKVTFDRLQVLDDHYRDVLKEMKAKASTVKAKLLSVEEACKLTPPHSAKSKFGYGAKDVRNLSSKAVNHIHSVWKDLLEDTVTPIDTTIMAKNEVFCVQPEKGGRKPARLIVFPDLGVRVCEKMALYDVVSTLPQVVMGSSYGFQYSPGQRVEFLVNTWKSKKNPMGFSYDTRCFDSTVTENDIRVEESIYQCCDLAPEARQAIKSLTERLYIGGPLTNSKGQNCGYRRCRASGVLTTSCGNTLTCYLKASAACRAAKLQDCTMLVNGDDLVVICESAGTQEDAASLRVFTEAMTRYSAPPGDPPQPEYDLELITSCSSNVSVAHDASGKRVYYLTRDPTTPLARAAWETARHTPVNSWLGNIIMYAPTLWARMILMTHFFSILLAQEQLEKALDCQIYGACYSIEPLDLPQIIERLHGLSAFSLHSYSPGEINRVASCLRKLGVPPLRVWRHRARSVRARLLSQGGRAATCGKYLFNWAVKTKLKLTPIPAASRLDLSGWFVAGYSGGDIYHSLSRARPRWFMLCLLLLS
The data set is described as follows: HCV NS5B RNA Polymerase Activity. Type of data set: biochemical, HCV BK strain. Conditions: poly A:oligo U16, tritiated UTP, 2 h at 30° C. How it is done:
The enzymatic activity of HCV NS5B570n-BK is measured as incorporation of radiolabeled nucleotide monophosphates into acid insoluble RNA products. Unincorporated radiolabel substrate is removed by filtration and scintillant is added to the washed and dried filter plate containing radiolabeled RNA product. The light emitted by the scintillant is proportional to the amount of RNA product generated by NS5B570n-BK at the endpoint of the reaction.
The N-terminally histidine tagged HCV polymerase, derived from HCV BK strain, genotype 1b (NS5B570n-BK) contains a 21 amino acid deletion at the C-terminus relative to the full-length HCV polymerase and is purified from E. coli strain M15. The construct containing the coding sequence of HCV BK strain amino acid residues 2421-2999 (GenBank accession number M58335) downstream of a Taq promoter expression cassette was inserted into plasmid constructs. The plasmid constructs are transformed in E. coli and colonies are inoculated and grown overnight in 10 L of Terrific broth (Tartoff and Hobbs) supplemented with 100 μg/mL ampicillin at 37° C. Protein expression is induced by addition of 1 mM isopropyl-β-D -thiogalactopyranoside (IPTG), when optical densities reaches between 1.5 and 3.5 OD600 and the culture is then incubated for 16- to 18 h at 22° C. NS5B570n -BK is purified to homogeneity using a three step protocol including subsequent column chromatography on Ni-NTA, SP-Sepharose HP and Superdex 75 resins.
Each 50 μl enzymatic reaction contains 8:4 μg/mL poly A:oligo U16 (template:primer), 200 nM NS5B570n-BK enzyme, 2.1 μCi of tritiated UTP (Perkin Elmer catalog no. TRK -412; specific activity: 30 to 60 Ci/mmol; stock solution concentration from 7.5×10^−5 M to 20.6×10^−6 M), 1 μM ATP, CTP, and GTP, 40 mM Tris-HCl pH 8.0, 2 to 40 mM NaCl, 4 mM DTT (dithiothreitol), 4 mM MgCl2, and 5 μl of compound serial diluted in DMSO. Reaction mixtures are assembled in MADVN0B 96-well filter plates (Millipore Co.) and incubated for 2 h at 30° C. Reactions are stopped by addition of 10% (v/v) trichloroacetic acid and incubated for 40 min at 4° C. Reactions are filtered, washed with 6 reaction volumes of 10% (v/v) trichloroacetic acetic acid, 2 reaction volumes of 70% (v/v) ethanol, air dried, and 25 μl of scintillant (Microscint 20, Perkin-Elmer) is added to each reaction well.
The amount of light emitted from the scintillant is converted to counts per minute (CPM) on a Topcount® plate reader (Perkin-Elmer, Energy Range: Low, Efficiency Mode: Normal, Count Time: 1 min, Background Subtract: none, Cross talk reduction: Off).
Data is analyzed with GraphPad® Prism® and/or Microsoft® Excel®. The reaction in the absence of enzyme is used to determine the background signal, which is subtracted from the enzymatic reactions. Positive control reactions are performed in the absence of compound, from which the background corrected activity is set as 100% polymerase activity. All data is expressed as a percentage of the positive control. The compound concentration at which the enzyme-catalyzed rate of RNA synthesis is reduced by 50% (IC50) is calculated by fitting equation (i) to
[formula] the data, where “Y” corresponds to the relative enzyme activity (in %), “% Min” is the residual relative enzymatic activity at saturating compound concentration, “% Max” is the maximal relative enzymatic activity compared to positive control, X corresponds to the compound concentration, and “S” is the Hill coefficient (or slope). […]

Consider `NC(=O)c1ncn([C@@H]2O[C@H](CO)[C@@H](O)[C@H]2O)n1` [ribavirin, 1-((2R,3R,4S,5R)-3,4-dihydroxy-5-hydroxymethyl-tetrahydro-furan-2-yl)-1H-[1,2,4]triazole-3-carboxylic acid amide], for which the “effect on serum levels of HCV-RNA” value with HCV (monotherapy / sole treatment) is on record as “does not lower serum levels of HCV-RNA”. For the same molecule, in the data set on HCV (monotherapy), the “patients in whom serum amino transferase levels are reduced to normal” value is 40%.

As to `Cc1cc(CN2C(=O)C(C3=NS(=O)(=O)c4ccccc43)=C(O)[C@@H]2C(C)(C)C)ccc1F` [II-15, (S)-5-tert-Butyl-3-(1,1-dioxo-1H-1λ^6-benzo[d]isothiazol-3-yl)-1-(4-fluoro-3-methyl-benzyl)-4-hydroxy-1,5-dihydro-pyrrol-2-one], the melting point lay within 105 to 111 °C. Further, in data set [1], the IC50 was 125 nM. On HCV NS5B570n-BK, this molecule registered a 50% inhibitory concentration (IC50) of 138 nM.

Molecule `CN(Cc1cccc2c1S(=O)(=O)N=C2C1=C(O)C(C(C)(C)C)N(Cc2ccc(F)cc2)C1=O)S(C)(=O)=O` (centres unmarked) [II-35, N-{3-[5-tert-Butyl-1-(4-fluoro-benzyl)-4-hydroxy-2-oxo-2,5-dihydro-1H-pyrrol-3-yl]-1,1-dioxo-1H-1λ^6-benzo[d]isothiazol-7-ylmethyl}-N-methyl-methanesulfonamide] came in with a melting point of 115 to 125 °C. Further, the IC50 in data set [1] was 108 nM. At HCV NS5B570n-BK, this molecule showed an IC50 of 154 nM.

`CC(C)(C)C1C(O)=C(C2=NS(=O)(=O)c3c(O)cccc32)C(=O)N1Cc1ccc(F)cc1` (centres unmarked) [II-6, 5-tert-Butyl-1-(4-fluoro-benzyl)-4-hydroxy-3-(7-hydroxy-1,1-dioxo-1H-1λ^6-benzo[d]isothiazol-3-yl)-1,5-dihydro-pyrrol-2-one]: the melting point was over 250 °C. Besides, the IC50 in data set [1] is 3260 nM. At HCV NS5B570n-BK, this molecule showed an IC50 of 52 nM.

As usually defined, the melting point is the temperature of the solid-liquid transition. In general, IC50 refers to the concentration that gives 50% inhibition.
